# In patent publication US20130102463A1, “Herbicidal Compositions” (BASF SE, priority 2010, published 2013):
# Several values for one entry are separate records, joined by “and”; a condition that tells them apart may be missing. Equal entries are not always repeated.
# Columns and labels:
# [1] = system: fleabane (Erigeron canadiensis); experiment: Example 3: herbicidal action; whole plants sprayed with B, component A applied as local leaf treatment, high light; format: in vivo, Erigeron canadensis; settings: ERICA, rate 60 g/ha (A alone)
# [2] = system: morningglory (Pharbitis purpurea, PHBPU); experiment: Example 2: herbicidal action; whole plants sprayed with A and B in the spraying chamber, high light; format: in vivo; settings: growth chamber
# [3] = system: moringglory (Pharbitis purpurea, PHBPU); experiment: Example 1: herbicidal action; whole plants sprayed with B, PPO inhibitor applied as local leaf treatment, high light; format: in vivo; settings: rate 60 g/ha (A alone)
# [4] = system: velvet leave (Abutilon theophrasti, ABUTH); experiment: Example 2: herbicidal action; whole plants sprayed with A and B in the spraying chamber, high light; format: in vivo; settings: growth chamber
# [5] = system: fleabane (Erigeron canadiensis, ERICA); experiment: as above; format: in vivo, Erigeron canadensis; settings: walk-in chamber
# [6] = system: fleabane (Erigeron canadiensis, ERICA); experiment: Example 1: herbicidal action; whole plants sprayed with B, PPO inhibitor applied as local leaf treatment, high light; format: in vivo, Erigeron canadensis; settings: rate 60 g/ha (A alone)
# [7] = 4 DAT, rate 0.250 g/ha (A alone)
# [8] = 4 DAT, rate 0.500 g/ha (A alone)
# [9] = 14 DAT, rate 0.250 g/ha (A alone)
# [10] = 14 DAT, rate 0.500 g/ha (A alone)
structure (smiles),measurement,setting,value
"CC(C)N(C)S(=O)(=O)NC(=O)c1cc(-n2c(=O)cc(C(F)(F)F)n(C)c2=O)c(F)cc1Cl [A.1.1, saflufenacil]",% damage,[1]; 2 DAT,55%
same,% damage,[1]; 8 DAT,34%
same,% damage,[2]; [7],95%
same,% damage,[2]; [8],98%
same,% damage,[2]; [9],85%
same,% damage,[2]; [10],93%
same,% damage,[3]; 4 DAT,28%
same,% damage,[3]; 10 DAT,35%
same,% damage,[4]; [7],67%
same,% damage,[4]; [8],96%
same,% damage,[4]; [9],35%
same,% damage,[4]; [10],83%
same,% damage,"[5]; 1 DAT, rate 0.125 g/ha (A alone)",38%
same,% damage,"[5]; 1 DAT, rate 0.250 g/ha (A alone)",70%
same,% damage,"[5]; 1 DAT, rate 0.350 g/ha (A alone)",65%
same,% damage,"[5]; 4 DAT, rate 0.125 g/ha (A alone)",38%
same,% damage,[5]; [7],83%
same,% damage,"[5]; 4 DAT, rate 0.350 g/ha (A alone)",90%
same,% damage,"[5]; 14 DAT, rate 0.125 g/ha (A alone)",18%
same,% damage,[5]; [9],67%
same,% damage,"[5]; 14 DAT, rate 0.350 g/ha (A alone)",75%
same,% damage,[6]; 7 DAT,10%
same,% damage,[6]; 10 DAT,56%
same,% damage,[6]; 11 DAT,10% and 18% and 19%
same,% damage,[6]; 42 DAT,45%
